Source: article PMC4784480 (FEBS letters, 2010)

Target: T1, Type II NADH dehydrogenase (Plasmodium falciparum, UniProt Q8I302)
T1 sequence (Q8I302 24-533): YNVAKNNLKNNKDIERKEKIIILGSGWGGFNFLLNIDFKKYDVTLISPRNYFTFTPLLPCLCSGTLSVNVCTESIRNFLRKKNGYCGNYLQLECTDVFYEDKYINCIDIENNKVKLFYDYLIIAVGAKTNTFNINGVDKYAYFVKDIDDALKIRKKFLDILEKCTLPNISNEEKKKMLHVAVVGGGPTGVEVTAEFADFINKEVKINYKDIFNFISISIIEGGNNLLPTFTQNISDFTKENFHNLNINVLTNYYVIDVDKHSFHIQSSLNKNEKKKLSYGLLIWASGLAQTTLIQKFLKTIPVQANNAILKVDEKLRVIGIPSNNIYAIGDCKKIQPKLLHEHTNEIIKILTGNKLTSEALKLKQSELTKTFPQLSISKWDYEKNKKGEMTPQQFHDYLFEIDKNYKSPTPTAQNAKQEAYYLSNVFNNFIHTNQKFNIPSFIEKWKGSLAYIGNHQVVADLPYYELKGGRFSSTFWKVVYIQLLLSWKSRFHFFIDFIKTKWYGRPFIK
Test: NADH oxidation at […] nm, parasite cell-free extract
Type: biochemical
Settings: concentration not given

| SMILES | NADH oxidation at 340 nm, parasite cell-free extract (inhibitor of MQ-4-dependent NADH oxidation) | NADH oxidation at 340 nm, parasite cell-free extract (electron acceptor with NADH) |
| --- | --- | --- |
| c1ccc2c(c1)[I+]c1ccccc1-2 [DPI, diphenylene iodonium chloride] | sensitive to diphenylene iodonium chloride (DPI), a classical Type II NADH:dehydrogenase inhibitor | – |
| CCCCCCCCCCC1=C(C)C(=O)C(OC)=C(OC)C1=O [decylubiquinone] | – | Without MQ-4 or decylubiquinone addition no NADH oxidation was observed |
